From patent US4382922A, “Peptides affecting gonadal function” (The Salk Institute for Biological Studies, priority 1982, dated 1983) come the findings set out here.

The structures appear in SMILES notation. Values joined by “and” are separate entries in the source; they are usually repeats but may differ in a detail not shown here. Equal values may be shown once.

In one assay the test system is dispersed rat pituitary cells. It counts as cell-based.
Conditions: not given
On the procedure: The peptides prepared in the foregoing Example I are assayed in vitro using a four-day-old primary culture of dispersed rat pituitary cells and compared with LRF. The levels of LH secreted over a 4-hour period in response to the application of peptides are assayed by specific radioimmunoassay for rat LH. The results of testing are expressed in the tables herebelow: […]
As to `CC(C)C[C@H](NC(=O)CNC(=O)[C@H](Cc1ccc(O)cc1)NC(=O)[C@H](CO)NC(=O)[C@H](Cc1c[nH]c2ccccc12)NC(=O)[C@H](Cc1c[nH]cn1)NC(=O)[C@@H]1CCC(=O)N1)C(=O)N[C@@H](CCCNC(=N)N)C(=O)N1CCC[C@H]1C(=O)NCC(N)=O` [LRF, p-Glu-His-Trp-Ser-Tyr-Gly-Leu-Arg-Pro-Gly-NH2, reference compound], the “NANOGRAMS OF LH SECRETED/ml. 4 hr.” value was 898 and 1240 and 1702.

The assay is the same for the next values; noted with them: in vitro LH release, LRF = 1; confidence limits in parentheses.
Take `CCNC(=O)[C@@H]1CCCN1C(=O)[C@H](CCCNC(=N)N)NC(=O)[C@H](CC(C)C)NC(=O)[C@@H](Cc1ccc(OC)cc1)NC(=O)[C@H](Cc1ccc(O)cc1)NC(=O)[C@H](CO)NC(=O)[C@H](Cc1c[nH]c2ccccc12)NC(=O)[C@H](Cc1c[nH]cn1)NC(=O)[C@@H]1CCC(=O)N1` [[OCH3 -D-Phe^6, Pro^9 -NEt]-LRF]: the “Potency (relative to LRF)” value was “about 130”. The same measure, in the same setting: the same measure for `CCNC(=O)[C@@H]1CCCN1C(=O)[C@H](CCCNC(=N)N)NC(=O)[C@H](CC(C)C)NC(=O)[C@@H](Cc1ccc(NC(C)=O)cc1)NC(=O)[C@H](Cc1ccc(O)cc1)NC(=O)[C@H](CO)NC(=O)[C@H](Cc1c[nH]c2ccccc12)NC(=O)[C@H](Cc1c[nH]cn1)NC(=O)[C@@H]1CCC(=O)N1` [compound 6]: 36 (21-69); for `CCNC(=O)[C@@H]1CCCN1C(=O)[C@H](CCCNC(=N)N)NC(=O)[C@H](CC(C)C)NC(=O)[C@@H](Cc1ccc(Cl)c(Cl)c1)NC(=O)[C@H](Cc1ccc(O)cc1)NC(=O)[C@H](CO)NC(=O)[C@H](Cc1c[nH]c2ccccc12)NC(=O)[C@H](Cc1c[nH]cn1)NC(=O)[C@@H]1CCC(=O)N1` [compound 5]: 38 (16-82). The same measure, in the same setting: the same measure for `CCNC(=O)[C@@H]1CCCN1C(=O)[C@H](CCCNC(=N)N)NC(=O)[C@H](CC(C)C)NC(=O)[C@@H](Cc1ccc([N+](=O)[O-])cc1)NC(=O)[C@H](Cc1ccc(O)cc1)NC(=O)[C@H](CO)NC(=O)[C@H](Cc1c[nH]c2ccccc12)NC(=O)[C@H](Cc1c[nH]cn1)NC(=O)[C@@H]1CCC(=O)N1` [compound 1, [pNO2 -D-Phe^6, Pro^9 -NEt]-LRF]: 141 (83-297).

Turning to `CCNC(=O)[C@@H]1CCCN1C(=O)[C@H](CCCNC(=N)N)NC(=O)[C@H](CC(C)C)NC(=O)[C@@H](Cc1ccc(OC)cc1)NC(=O)[C@H](Cc1ccc(O)cc1)NC(=O)[C@H](CO)NC(=O)[C@H](Cc1c[nH]c2ccccc12)NC(=O)[C@H](Cc1c[nH]cn1)NC(=O)[C@@H]1CCC(=O)N1` [Peptide No. 2, [OCH3 -D-Phe^6, Pro^9 -NEt]-LRF], the “Potency (relative to LRF)” value is 130(72-242). For the compound `CCNC(=O)[C@@H]1CCCN1C(=O)[C@H](CCCNC(=N)N)NC(=O)[C@H](CC(C)C)NC(=O)[C@@H](Cc1ccc(Cl)cc1)NC(=O)[C@H](Cc1ccc(O)cc1)NC(=O)[C@H](CO)NC(=O)[C@H](Cc1c[nH]c2ccccc12)NC(=O)[C@H](Cc1c[nH]cn1)NC(=O)[C@@H]1CCC(=O)N1` [compound 4], the “Potency (relative to LRF)” value is on record as 59 (29-120). The same measure, in the same setting: the same measure for `CCNC(=O)[C@@H]1CCCN1C(=O)[C@H](CCCNC(=N)N)NC(=O)[C@H](CC(C)C)NC(=O)[C@@H](Cc1c(C)c(C)c(C)c(C)c1C)NC(=O)[C@H](Cc1ccc(O)cc1)NC(=O)[C@H](CO)NC(=O)[C@H](Cc1c[nH]c2ccccc12)NC(=O)[C@H](Cc1c[nH]cn1)NC(=O)[C@@H]1CCC(=O)N1` [Peptide No. 7, [pentamethyl-D-Phe^6, Pro^9 -NEt]-LRF]: 86(50-145). Still for that read-out and setting: in the case of `CCNC(=O)[C@@H]1CCCN1C(=O)[C@H](CCCNC(=N)N)NC(=O)[C@H](CC(C)C)NC(=O)[C@@H](Cc1ccccc1)NC(=O)[C@H](Cc1ccc(O)cc1)NC(=O)[C@H](CO)NC(=O)[C@H](Cc1c[nH]c2ccccc12)NC(=O)[C@H](Cc1c[nH]cn1)NC(=O)[C@@H]1CCC(=O)N1` [compound 8] it was 78 (46-132); in that of `CCNC(=O)[C@@H]1CCCN1C(=O)[C@H](CCCNC(=N)N)NC(=O)[C@H](CC(C)C)NC(=O)[C@@H](Cc1ccc(C)cc1)NC(=O)[C@H](Cc1ccc(O)cc1)NC(=O)[C@H](CO)NC(=O)[C@H](Cc1c[nH]c2ccccc12)NC(=O)[C@H](Cc1c[nH]cn1)NC(=O)[C@@H]1CCC(=O)N1` [compound 3], 143 (79-268); in that of `CCNC(=O)[C@@H]1CCCN1C(=O)[C@H](CCCNC(=N)N)NC(=O)[C@H](CC(C)C)NC(=O)[C@@H](Cc1c(C)c(C)c(C)c(C)c1C)NC(=O)[C@H](Cc1ccc(O)cc1)NC(=O)[C@H](CO)NC(=O)[C@H](Cc1c[nH]c2ccccc12)NC(=O)[C@H](Cc1c[nH]cn1)NC(=O)[C@@H]1CCC(=O)N1` [[pentamethyl-D-Phe^6, Pro^9 -NEt]-LRF], “about 86”.
